Blank lines part the entries; values can stand above or below the molecule they belong to.
Key:
[1] = test system: ATP aptamer (DNA, aptamer) AATTCTGGGGGAGCCTTTTGTGGGTAGGGCGGGTTGGTTTTGCCCCGGAGGAGGAATT; experiment: structure-switching FAM/BHQ1 fluorescence quenching; details: 300 mM NaCl, 5 mM MgCl2, 20 mM Tris-HCl, pH 7.4; for binding: 2 M CDHP, AD-13 hybridized, 1 mM nucleotide tested
[2] = test system: Malachite green (MG) aptamer (RNA, aptamer) GGAUCCCGACUGGCGAGAGCCAGGUAACGAAUGGAUCC; experiment: fluorescence light-up titration of MG; details: 100 mM KCl, 5 mM MgCl2; 10 mM Na-HEPES, pH 7.4; 100 nM aptamer; no CDHP
[3] = test system: Scrambled MG aptamer (RNA, other) ACCGUUGCCGGACGAGACUGAUACGCGGAAGUCGCAAG; experiment: fluorescence spectrum; details: 100 nM scrambled RNA
[4] = test system: Malachite green (MG) aptamer (RNA, aptamer) GGAUCCCGACUGGCGAGAGCCAGGUAACGAAUGGAUCC; experiment: fluorescence spectrum; details: 100 mM KCl, 5 mM MgCl2; 10 mM HEPES, pH 7.4; 1 μM CV; also in 2 M CDHP
[5] = test system: Cortisol aptamer (DNA, aptamer) CTCTTGGGACGACGCCCGCATGTTCCATGGATAGTCTTGACTAGTCGTCCC; experiment: aptasensor strand-displacement fluorescence (FAM/BHQ1); details: aqueous buffer and 2 M CDHP; 3'-FAM signaling strand GTCGTCCCAAGAG hybridized; 1-10 ng/ml cortisol
[6] = test system: PS2.M (DNA, G4) GTGGGTAGGGCGGGTTGG; experiment: ligand fluorescence titration; details: 100 mM KCl; 10 mM Tris-HCl, pH 7.6; no CDHP

SMILES: CN(C)c1ccc(C(=C2C=CC(=[N+](C)C)C=C2)c2ccccc2)cc1
Kd [2]: 0.2573 µM
binding [3]: no

SMILES: CN(C)c1ccc(C(=C2C=CC(=[N+](C)C)C=C2)c2ccc(N(C)C)cc2)cc1
binding [4]: no

SMILES: C[C@]12CCC(=O)C=C1CC[C@@H]1[C@@H]2[C@@H](O)C[C@@]2(C)[C@H]1CC[C@]2(O)C(=O)CO
binding [5]: yes

SMILES: CCc1c(C)c2cc3nc(cc4nc(cc5c(CC)c(C)c(cc1[nH]2)n5C)C(C)=C4CCC(=O)O)C(CCC(=O)O)=C3C
Kd [6]: 0.5206 µM

SMILES: Cc1ccc2c(c1)sc(-c1ccc(N(C)C)cc1)[n+]2C
Kd [6]: 1.4447 µM

More lines, now with the values ahead:

EC50 ([1]; antisense DNA AD-13 displaced, no CDHP): 384 µM
SMILES: Nc1ncnc2c1ncn2[C@@H]1O[C@H](COP(=O)(O)OP(=O)(O)OP(=O)(O)O)[C@@H](O)[C@H]1O

binding [1]: no
SMILES: Nc1nc2c(ncn2[C@@H]2O[C@H](COP(=O)(O)OP(=O)(O)OP(=O)(O)O)[C@@H](O)[C@H]2O)c(=O)[nH]1

binding [1]: no
SMILES: Nc1ccn([C@@H]2O[C@H](COP(=O)(O)OP(=O)(O)OP(=O)(O)O)[C@@H](O)[C@H]2O)c(=O)n1

binding [1]: no
SMILES: O=c1ccn([C@@H]2O[C@H](COP(=O)(O)OP(=O)(O)OP(=O)(O)O)[C@@H](O)[C@H]2O)c(=O)[nH]1
